The source of these data is PMC3573263 (Chemical biology & drug design, 2013).

One assay has as its target wild-type YopH (Yersinia pestis, UniProt O68720). Put plainly: biochemical. It counts as binding.
The target in assay [1] is T1, YopH (Yersinia pestis, UniProt O68720). The following applies: cited from earlier work.
Assay [2] has as its target T1, YopH.
A further assay concerns the target N-terminus of YopH. To be noted: read-out: equilibrium dissociation constant; cited from earlier work.
The target in assay [3] is YopH N-terminus (Yersinia pestis) (UniProt P08538). Put plainly: NMR. To be noted: cited from earlier work.
Chain of YopH N-terminus (Yersinia pestis) (P08538 1-129): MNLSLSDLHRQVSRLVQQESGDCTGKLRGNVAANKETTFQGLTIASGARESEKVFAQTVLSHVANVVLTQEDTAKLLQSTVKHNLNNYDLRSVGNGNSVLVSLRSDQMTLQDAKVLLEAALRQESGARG

T1 sequence (O68720 164-468 limits assumed): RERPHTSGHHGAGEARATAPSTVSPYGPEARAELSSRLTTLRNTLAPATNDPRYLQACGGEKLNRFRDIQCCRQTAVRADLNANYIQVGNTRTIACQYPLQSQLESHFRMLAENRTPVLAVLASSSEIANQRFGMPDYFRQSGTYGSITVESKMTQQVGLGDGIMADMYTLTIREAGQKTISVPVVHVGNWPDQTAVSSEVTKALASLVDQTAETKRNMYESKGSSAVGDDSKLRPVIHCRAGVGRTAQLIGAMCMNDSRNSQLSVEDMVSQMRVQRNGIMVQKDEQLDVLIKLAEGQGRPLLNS
Chain of wild-type YopH (O68720 164-468 limits assumed): as above

At wild-type YopH, `N[C@@H](Cc1ccc(OP(=O)(O)O)cc1)C(=O)O` [L-phosphotyrosine, reference compound] displayed a Kd of 24400 µM, a koff of 0.679, a kon of 0.278 M⁻¹ s⁻¹ and a ΔG of -2.2 kcal/mol.

Turning to `O=C(O)c1ccc(/C=N/OCc2ccc(-c3cccc(C(F)(F)P(=O)(O)O)c3)cc2)o1` [compound 3, 5-((1E)-(((4-(3-(difluoro(phosphono)methyl)phenyl)phenyl)methoxy)imino)methyl)furan-2-carboxylic acid], at wild-type YopH, the Kd was 239 µM, the koff is on record as 0.945 (0.13) and the kon is 44.5 M⁻¹ s⁻¹.

`O=[N+]([O-])c1ccc(OP(=O)(O)O)cc1` [pNPP, para-nitrophenylphosphate]: the “catalytic activity of YopH toward substrate, lower than the pTyr-containing peptide” value on YopH [1] is reported as 1300 fold.

In the case of “(difluoro((3-(4-((((E)-furan-2-ylmethylidene)amino)oxy)methyl)phenyl)phenyl))methyl) phosphonic acid [compound 2]”, at wild-type YopH, the koff is reported as 2.15 (0.89) and the ΔG is recorded as −5.28 (0.20) kcal/ mol.

As to “(difluoro((3-(4-((((E)-furan-3-ylmethylidene)amino)oxy)methyl)phenyl)phenyl))methyl) phosphonic acid [compound 1]”, the “inhibition of PTPase activity on microarrayed pTyr-EGFR peptide (in words)” value against YopH [2] is on record as “dose-response relationship”. Besides, on wild-type YopH, the koff is on record as 1.95 (0.95), the kon is 73.4 (34.8) 1/Ms and the ΔG was −4.88 (0.43) kcal/ mol.

Consider DADE-pYLIPQQG, for which, at YopH [1], the “rate constant for dephosphorylation” value was 2.23e+07 M⁻¹ s⁻¹.

On to DADEpYL [hexapeptide], for which the Kd on N-terminus of YopH is 10 µM.

As for “EGFR phosphopeptide (from UniProt P00533)”, the Kd in assay [3] was 10 µM.
